Patent US10213451B2, “Methods and compounds for modulating the secretion or expression of adhesion proteins or angiopoietins of cells” (PACIFIC ARROW LIMITED, priority 2004, dated 2019)
Values after ≈ are worked out from the molar mass of the structure shown. Read-outs that look alike come from different tables or passages of the source.

Legend:
[1] = tested on: Fibronectin secretion from brain glioblastoma T98G cells; assay: Fibronectin secretion (Western blot), T98G cells; format: cell-based, human; settings: for inhibition at 20 µg/mL: 20 ug/ml
[2] = tested on: Glypican expression in ES2 cells; assay: Microarray gene expression, Table 13; format: cell-based, human
Protocol: (§1) Y/D is the ratio (in folds) of gene expression in cells treated with compound Y as compared with those of the no drug control (D),
(§2) YM/D is the ratio of gene expression in cells treated with compound YM (ACH-Y, Y without sugar moiety) compared with those of the no drug control (D)
(§3) Cell culture and drug-treatment.: ES2 cells were seeded in a T-25 flask with 4.5 million cells per flask for 24 hours. Cell culture was replaced with fresh medium with xanifolia-Y (Y) or DMSO no drug control (D) for 24 hours. Cells were then harvested for RNA isolation. Three experiments were done.
(§4) RNA extraction, labeling, hybridization, and data analysis. RNA was extracted from tumor cells using the Qiagen RNeasy Kit. RNA quality and quantity was checked by the Agilent BioAnalyzer and the NanoDrop® ND-1000 spectrophotometer respectively before further manipulation. The first and second cDNA strands were synthesized from 20 ng of total RNA using the Affymetrix T7 oligo(dT) primer protocol and kit for the two-cycle amplification. To produce amplified biotin-labeled-cRNA, the cDNA was […] by in vitro transcription using the MegaScript kit from Ambion. 15.0 μg of the labeled cRNA was fragmented and re-checked for concentration using the NanoDrop® ND-1000 spectrophotometer. A hybridization cocktail containing Affymetrix spike-in controls and fragmented labeled cRNA was loaded onto the Human U133 Plus 2.0 GeneChip® oligonucleotide array. The Affymetrix array (Affymetrix, Inc. Santa Clara, Calif.) is comprised of over 1,300,000 unique oligonucleotide features that represent greater than 38,500 well-substantiated human genes. The array was hybridized for 16 hours at 45° C. with rotation at 60 rpm then washed and stained with a strepavidin, R-phycoerythrin conjugate stain on the Affymetrix Fluidicis Station 450. Signal amplification was done using biotinylated antistreptavidin. The arrays were scanned using the GeneChip® 3000 confocal laser scanner with autoloader. The images were analyzed and quality control metrics recorded using Affymetrix GCOS software version 1.4. Lastly, the expression value for each gene was calculated using dChip PM-only model based or Plier algorithm.
(§5) Pairwise comparisons were made as follows: Treated vs. Control (Y vs. D), Modified Drug vs Control (YM/ACY-H vs. D) and Treated vs. Modified Drug (Y vs. YM/ACH-Y) Cel files analyzed using the Bioconductor package of R Statistical programming. Limma analysis generated a reasonable number of changing genes between the samples.
The raw data in the .CEL files were normalized by the GCRMA method (robust multi-array analysis). It is implemented in Bioconductor (http://www.bioconductor.org/). […]

[3] = tested on: regulator of G-protein expression in ES2 cells; assay: Microarray gene expression, Table 14; format: cell-based, human
Protocol: as §1, §2, §3, §4, §5
(§6) The raw data in the .CEL files were normalized by the GCRMA method (robust multi-array analysis). It is implemented in Bioconductor (http://www.bioconductor.org/). The raw signal intensity data were normalized, background corrected and summarized based on certain statistical models, and an expression value, in log 2-scale, is obtained per chip per probe set. Then the null hypothesis was tested that there's no significant changes in gene expression between the treatment pairs. This was done by LIMMA and is also implemented in Bioconductor. It uses empirical Bayes method to estimate the variance in gene expression. One comparison was made, namely, High Grade vs. Low Grade. The raw p-values were adjusted by the Benjamnin-Hochberg method for false discovery rate (FDR) control. All data sets contained a significant number of genes with a p-value less than 0.05, which is that the probability that a gene is NOT differential expressed (false positive) is 1:20.

[4] = tested on: angiopoietin expression in ES2 cells; assay: Microarray gene expression, Table 12; format: cell-based, human; settings: for ANGPT1 angiopoietin 1, gene expression ratio to no drug control (D): probe 205609_at; for ANGPTL4 angiopoietin-like 4, gene expression ratio to no drug control (D): probe 221009_s_at; for ANGPTL1 Angiopoietin-like 1, gene expression ratio to no drug control (D): probe 227533_at
Protocol: as §1, §2, §3, §4, §5, §6

[5] = tested on: thrombospondin in ES2 cells; assay: Microarray gene expression, Table 15; format: cell-based, human
Protocol: as §1, §2, §3, §4, §5, §6

[6] = tested on: heparin sulfate expression in ES2 cells; assay: Microarray gene expression, Table 10; format: cell-based, human; settings: for HSPG2 heparan sulfate proteoglycan 2 (perlecan), gene expression ratio to no drug control (D): probe 201655_s_at; for HS2ST1 heparan sulfate 2-O-sulfotransferase 1, gene expression ratio to no drug control (D): probe 203284_s_at; for HPSE Heparanase, gene expression ratio to no drug control (D): probe 219403_s_at
Protocol: as §1, §2, §3, §4, §5, §6

tumor growth = assay: MTT anticancer activity of Y, X and hydrolysis products (FIG. 4C); format: cell-based; settings: for IC50: read-out: IC50, inhibits tumor growth / anticancer activity
Outline: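 Tumour cell lines seeded 24 h beforehand (10,000–40,000/well by line), then exposed to drug for 48 h (HepG2, U2OS 72 h; MCF-7 96 h). MTT 0.5 mg/mL added for 1 h, formazan dissolved in DMSO, OD 490 nm. % growth relative to pre-treatment (T0) and control; % cytotoxicity used when TD<T0.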

[7] = tested on: Fibronectin secretion from lung carcinoma cells (H460); assay: Fibronectin secretion (Western blot), H460 cells; format: cell-based, human; settings: for % inhibition of Fibronectin secretion: H460 cells

Structure (SMILES) | inhibition at 20 µg/mL ([1]; Homo sapiens, T98G) | GPC6 Glypican 6, gene expression ratio to no drug control (D) ([2]; probe 227059_at) | GPC6 Glypican 6, gene expression ratio to no drug control (D) ([2]; probe 243865_x_at) | RGS4 regulator of G-protein signalling 4, gene expression ratio to no drug control (D) ([3]; probe 204337_at) | RGS4 regulator of G-protein signalling 4, gene expression ratio to no drug control (D) ([3]; probe 204338_s_at) | RGS4 regulator of G-protein signalling 4, gene expression ratio to no drug control (D) ([3]; probe 204339_s_at) | ANGPT2 angiopoietin 2, gene expression ratio to no drug control (D) ([4]; probe 205572_at) | ANGPT1 angiopoietin 1, gene expression ratio to no drug control (D) [4] | ANGPT2 angiopoietin 2, gene expression ratio to no drug control (D) ([4]; probe 211148_s_at) | ANGPTL4 angiopoietin-like 4, gene expression ratio to no drug control (D) [4] | ANGPTL1 Angiopoietin-like 1, gene expression ratio to no drug control (D) [4] | THBS1 thrombospondin 1, gene expression ratio to no drug control (D) ([5]; probe 201108_s_at) | THBS1 thrombospondin 1, gene expression ratio to no drug control (D) ([5]; probe 201109_s_at) | THBS1 thrombospondin 1, gene expression ratio to no drug control (D) ([5]; probe 201110_s_at) | HSPG2 heparan sulfate proteoglycan 2 (perlecan), gene expression ratio to no drug control (D) [6] | HS2ST1 heparan sulfate 2-O-sulfotransferase 1, gene expression ratio to no drug control (D) [6] | HPSE Heparanase, gene expression ratio to no drug control (D) [6] | IC50 (tumor growth; FIG. 4C) | further results
C/C=C(/C)C(=O)O[C@H]1[C@H](OC(=O)/C(C)=C\C)[C@@]2(CO)C(CC1(C)C)C1=CCC3[C@@]4(C)CC[C@H](O)C(C)(C)C4CC[C@@]3(C)[C@]1(C)[C@@H](O)[C@H]2O (stereo partly drawn) [ACH-Y] | 30% | −1.8 folds | −2.0 folds | −1.1 folds | −1.1 folds | −1.2 folds | 1.4 folds | −1.2 folds | 1.4 folds | −1.4 folds | −2.3 folds | −2.2 folds | −6.2 folds | −4.5 folds | −1.3 folds | −1.7 folds | −1.3 folds | 9.5 µg/mL (≈ 14.2 µM) | MTT activities of hydrolysed products of compound Y (tumor growth; FIG. 4C, 4D): very weak; anticancer activity retained after removal of sugars from Y (tumor growth; relative to Y): 40%; inhibition at 20 µg/mL ([7]; Homo sapiens, NCI-H460, H460 cells, 20 ug/ml): 28%
C/C=C(/C)C(=O)O[C@H]1[C@H](OC(=O)/C(C)=C\C)[C@@]2(CO)C(CC1(C)C)C1=CCC3[C@@]4(C)CC[C@H](O[C@@H]5OC(C(=O)O)[C@@H](O)C(O[C@@H]6O[C@@H](CO)C(O)C6O)C5O[C@@H]5OC(CO)[C@H](O)C(O)C5O)C(C)(C)C4CC[C@@]3(C)[C@]1(C)[C@@H](O)[C@H]2O (stereo partly drawn) [Xanifolia-Y, 3-O-[β-D-galactopyranosyl (1→2)]-α-L-arabinofuranosy (1→3)-β-D-glucuronopyranosyl-21,22-O-diangeloyl-3β, 15α, 16α, 21β, 22α, 28-hexahydroxyolean-12-ene] | 74% | −2.2 folds | −2.7 folds | −3.4 folds | −2.5 folds | −3.5 folds | 3.5 folds | −1.1 folds | 2.5 folds | −1.2 folds | −1.5 folds | −1.7 folds | −2.0 folds | −1.8 folds | −2.4 folds | −1.3 folds | −1.4 folds | 4 µg/mL (≈ 3.5 µM) | % inhibition of Fibronectin secretion ([1]; 10 ug/ml, listed as Y3): 26%; inhibition at 10 µg/mL ([1]; Homo sapiens, T98G, 10 ug/ml): 27%; IC50 (tumor growth): 1.5 to 4.5 µg/mL (≈ 1.31 to 3.94 µM); % inhibition of Fibronectin secretion ([7]; 20 ug/ml): 20-60%; % inhibition of Fibronectin secretion ([7]; 20 ug/ml, listed as Y): over 60%; inhibition at 10 µg/mL ([7]; Homo sapiens, NCI-H460, H460 cells, 10 ug/ml): 19%
